According to US20250136722A1, “CYTOTOXICITY TARGETING CHIMERAS” (GLAXOSMITHKLINE INTELLECTUAL PROPERTY DEVELOPMENT LIMITED, priority 2021, published 2025):
Where “and” joins values, the source holds several entries; their conditions need not be identical. Identical values can stand only once. Counter-ions that a name gives are not always drawn.

target: T1, CHOK1 cells engineered to overexpress human CCR2 (Homo sapiens, UniProt P41597); assay: Antibody dependent cellular cytotoxicity (ADCC) reporter assay (Example 199); type: cell-based; settings: with anti-cotinine antibody SEQ ID NO: 11/12; CHOK1-human CCR2 target cells, Jurkat FcγRIIIa NFAT-luciferase reporter cells; 12-18 hours; read-out: ADCC Reporter Assay pEC50 (converted)
T1 construct: expressed in transfected cells; host or cells: CHOK1 cells
Procedure: An antibody dependent cellular cytoxicity reporter assay was conducted using the following four assay components: (i) ARM compound of Formula (I) targeting CCR2 (concentrations ranging from 1 pM to 10 μM) (ii) anti-cotinine antibody having a heavy chain sequence of SEQ ID NO: 11 and a light chain sequence of SEQ ID NO: 12 (rabbit variable region with human IgG1 Fc domain containing a DE mutation (S239D/1332E)) (concentrations ranging from 0.01 μg/mL to 200 μg/mL); (iii) target cells: CHOK1 cells engineered to overexpress either human CCR2 (typically 1000-20,000 cells per well) and (iv) reporter cells: Jurkat cells engineered to express FcγRIIIa with the reporter gene luciferase under the control of the NFAT promoter (typically 3000-75,000 cells per well). Reagents were combined in a final volume of 20 μL in a 384-well tissue culture treated plate. All four assay components were incubated together for about 12-18 hours. Thereafter, BioGlo Detection reagent (Promega) was added to the wells to lyse the cells and provide a substrate for the luciferase reporter protein. Luminescence signal was measured on a microplate reader and signal:background was calculated by dividing the signal of a test well by the signal obtained when no heterobivalent compound of Formula (I) was added. EC50 calculations were done using Graphpad Prism Software, specifically a nonlinear regression curve fit (Y=Bottom+(Top−Bottom)/(1+10^((Log EC50−X)*HillSlope))).
ARMs compounds of Formula (I) of the invention were tested for ADCC activity in the above assay in or more experimental runs and the results are shown in Table 3 below. Potency of the compounds of Formula (I) of the invention is reported as a pEC50 value. The pEC50 value is the negative log of the EC50 value, wherein the EC50 value is the half maximal effective concentration measured in molar (M). For compounds tested in more than one experimental run, the pEC50 value is reported as an average.

SMILES	EC50
CC(C)N(C)[C@@H]1CC[C@H](N2CC[C@H](Nc3ncnc4ccc(C(F)(F)F)cc34)C2=O)[C@H](NC(=O)[C@H]2CC[C@H](N3CCC(C(=O)NCCOCCOCCNC(=O)[C@H]4CC(=O)N(C)[C@@H]4c4cccnc4)CC3)CC2)C1 [Example 135]	2.51 nM
CN1C(=O)C[C@H](C(=O)NCCOCC(=O)NCCOCCC(=O)NCCOCCC(=O)N[C@@H]2C[C@H](NC(C)(C)C)CC[C@@H]2N2CC[C@H](Nc3ncnc4ccc(C(F)(F)F)cc34)C2=O)[C@H]1c1cccnc1 [Example 106]	0.558 nM
CC(C)N(C)[C@@H]1CC[C@H](N2CC[C@H](Nc3ncnc4ccc(C(F)(F)F)cc34)C2=O)[C@H](NC(=O)[C@H]2C[C@H](NC(=O)CCOCCNC(=O)CCOCCNC(=O)[C@@H]3CC(=O)N(C)[C@H]3c3cccnc3)C2)C1 [Example 45]	3.98 nM
CC(C)N(C)[C@@H]1CC[C@H](N2CC[C@H](Nc3ncnc4ccc(C(F)(F)F)cc34)C2=O)[C@H](NC(=O)COCCCCCCCCCOCCCCCCCNC(=O)[C@H]2CC(=O)N(C)[C@@H]2c2cccnc2)C1 [Example 153, (2S,3S)-N-(7-((9-(2-(((1R,2S,5R)-5-(Isopropyl(methyl)amino)-2-((S)-2-oxo-3-((6-(trifluoromethyl)quinazolin-4-yl)amino)pyrrolidin-1-yl)cyclohexyl)amino)-2-oxoethoxy)nonyl)oxy)heptyl)-1-methyl-5-oxo-2-(pyridin-3-yl)pyrrolidine-3-carboxamide]	2.51 nM
CC(C)N(C)[C@@H]1CC[C@H](N2CC[C@H](Nc3ncnc4ccc(C(F)(F)F)cc34)C2=O)[C@H](NC(=O)C2CCC(N3CC(C(=O)NCCOCCOCCNC(=O)[C@H]4CC(=O)N(C)[C@@H]4c4cccnc4)C3)CC2)C1 (stereo partly drawn) [Example 131]	3.16 nM
CC(C)N(C)[C@@H]1CC[C@H](N2CC[C@H](Nc3ncnc4ccc(C(F)(F)F)cc34)C2=O)[C@H](NC(=O)[C@H]2CC[C@@H](N3CCC(C(=O)NCCOCCOCCNC(=O)[C@H]4CC(=O)N(C)[C@@H]4c4cccnc4)C(F)(F)C3)CC2)C1 (stereo partly drawn) [Example 132]	3.16 nM
CC(C)N(C)[C@@H]1CC[C@H](N2CC[C@H](Nc3ncnc4ccc(C(F)(F)F)cc34)C2=O)[C@H](NC(=O)[C@H]2CC[C@@H](NC(=O)CCCOCCCOCCCNC(=O)[C@H]3CC(=O)N(C)[C@@H]3c3cccnc3)CC2)C1 [Example 193, (2S,3S)-N-(3-(3-(4-(((1S,4s)-4-(((1R,2S,5R)-5-(Isopropyl(methyl)amino)-2-((S)-2-oxo-3-((6-(trifluoromethyl)quinazolin-4-yl)amino)pyrrolidin-1-yl)cyclohexyl)carbamoyl)cyclohexyl)amino)-4-oxobutoxy)propoxy)propyl)-1-methyl-5-oxo-2-(pyridin-3-yl)pyrrolidine-3-carboxamide]	0.398 nM and 0.126 nM
CN1C(=O)C[C@H](C(=O)NCCOCC(=O)NCCOCC(=O)N[C@H]2CC[C@@H](C(=O)N[C@@H]3C[C@H](NC(C)(C)C)CC[C@@H]3N3CC[C@H](Nc4ncnc5ccc(C(F)(F)F)cc45)C3=O)CC2)[C@H]1c1cccnc1 [Example 100]	1.2 nM
CC(C)N(C)[C@@H]1CC[C@H](N2CC[C@H](Nc3ncnc4ccc(C(F)(F)F)cc34)C2=O)[C@H](NC(=O)[C@H]2CC[C@@H](NC(=O)COCCOCCNC(=O)CCNC(=O)[C@H]3CC(=O)N(C)[C@@H]3c3cccnc3)CC2)C1 [Example 82]	0.479 nM
CC(C)N(C)[C@@H]1CC[C@H](N2CC[C@H](Nc3ncnc4ccc(C(F)(F)F)cc34)C2=O)[C@H](NC(=O)[C@H]2CC[C@H](N3CCN(CCCCCCCCNC(=O)[C@H]4CC(=O)N(C)[C@@H]4c4cccnc4)CC3)CC2)C1 [Example 146]	0.251 nM
CC(C)N(C)[C@@H]1CC[C@H](N2CC[C@H](Nc3ncnc4ccc(C(F)(F)F)cc34)C2=O)[C@H](NC(=O)COCC(=O)N2CCN(C(=O)N3CCN(C(=O)COCCNC(=O)[C@H]4CC(=O)N(C)[C@@H]4c4cccnc4)CC3)CC2)C1 [Example 84]	0.213 nM
CC(C)N(C)[C@@H]1CC[C@H](N2CC[C@H](Nc3ncnc4ccc(C(F)(F)F)cc34)C2=O)[C@H](NC(=O)[C@H]2CC[C@H](NC(=O)CCO[C@H]3CC[C@@H](OCCNC(=O)[C@H]4CC(=O)N(C)[C@@H]4c4cccnc4)CC3)CC2)C1 [Example 114]	5.77 nM
CC(C)N(C)[C@@H]1CC[C@H](N2CC[C@H](Nc3ncnc4ccc(C(F)(F)F)cc34)C2=O)[C@H](NC(=O)c2ccc([C@H]3CC[C@@H](C(=O)NCCOCCOCCNC(=O)[C@H]4CC(=O)N(C)[C@@H]4c4cccnc4)CC3)cc2)C1 [Example 133]	5.01 nM
CC(C)N(C)[C@@H]1CC[C@H](N2CC[C@H](Nc3ncnc4ccc(C(F)(F)F)cc34)C2=O)[C@H](NC(=O)c2ccc(NCCOCCOCCOCCOCCNC(=O)[C@H]3CC(=O)N(C)[C@@H]3c3cccnc3)nc2)C1 [Example 128, N-((1R,2S,5R)-5-(Isopropyl(methyl)amino)-2-((S)-2-oxo-3-((6-(trifluoromethyl)quinazolin-4-yl)amino)pyrrolidin-1-yl)cyclohexyl)-6-((1-((2S,3S)-1-methyl-5-oxo-2-(pyridin-3-yl)pyrrolidin-3-yl)-1-oxo-5,8, 11, 14-tetraoxa-2-azahexadecan-16-yl)amino)nicotinamide]	1 nM
CC(C)N(C)[C@@H]1CC[C@H](N2CC[C@H](Nc3ncnc4ccc(C(F)(F)F)cc34)C2=O)[C@H](NC(=O)[C@H]2C[C@H](NC(=O)CCO[C@H]3CC[C@@H](OCCNC(=O)[C@H]4CC(=O)N(C)[C@@H]4c4cccnc4)CC3)C2)C1 [Example 116]	5.01 nM
CC(C)N(C)[C@@H]1CC[C@H](N2CC[C@H](Nc3ncnc4ccc(C(F)(F)F)cc34)C2=O)[C@H](NC(=O)CCOCCC(=O)N2CCC3(CCC(C(=O)NCCNC(=O)[C@H]4CC(=O)N(C)[C@@H]4c4cccnc4)CC3)CC2)C1 [Example 167, 3-(3-(3-(((1R,2S,5R)-5-(Isopropyl(methyl)amino)-2-((S)-2-oxo-3-((6-(trifluoromethyl)quinazolin-4-yl)amino)pyrrolidin-1-yl)cyclohexyl)amino)-3-oxopropoxy)propanoyl)-N-(2-((2S,3S)-1-methyl-5-oxo-2-(pyridin-3-yl)pyrrolidine-3-carboxamido)ethyl)-3-azaspiro[5.5]undecane-9-carboxamide]	1.26 nM
CC(C)N(C)[C@@H]1CC[C@H](N2CC[C@H](Nc3ncnc4ccc(C(F)(F)F)cc34)C2=O)[C@H](NC(=O)[C@H]2CC[C@@H](N3CCN(CCCCCCCCNC(=O)[C@H]4CC(=O)N(C)[C@@H]4c4cccnc4)CC3)CC2)C1 [Example 145]	1.58 nM
CC(C)N(C)[C@@H]1CC[C@H](N2CC[C@H](Nc3ncnc4ccc(C(F)(F)F)cc34)C2=O)[C@H](NC(=O)c2cnn(C3CCN(C(=O)CCCCCCCCCCNC(=O)[C@H]4CC(=O)N(C)[C@@H]4c4cccnc4)CC3)c2)C1 [Example 156]	0.794 nM
CC(C)N(C)[C@@H]1CC[C@H](N2CC[C@H](Nc3ncnc4ccc(C(F)(F)F)cc34)C2=O)[C@H](NC(=O)CCCCCCCCC(=O)NCCOCCOCCNC(=O)[C@H]2CC(=O)N(C)[C@@H]2c2cccnc2)C1 [Example 159, N^1-((1R,2S,5R)-5-(isopropyl(methyl)amino)-2-((S)-2-oxo-3-((6-(trifluoromethyl)quinazolin-4-yl)amino)pyrrolidin-1-yl)cyclohexyl)-N^10-(2-(2-(2-((2S,3S)-1-methyl-5-oxo-2-(pyridin-3-yl)pyrrolidine-3-carboxamido)ethoxy)ethoxy)ethyl)decanediamide]	2 nM
CC(C)N(C)[C@@H]1CC[C@H](N2CC[C@H](Nc3ncnc4ccc(C(F)(F)F)cc34)C2=O)[C@H](NC(=O)CCCN2CCC3(CCC(C(=O)NCCNC(=O)[C@H]4CC(=O)N(C)[C@@H]4c4cccnc4)CC3)CC2)C1 [Example 183, 3-(4-(((1R,2S,5R)-5-(Isopropyl(methyl)amino)-2-((S)-2-oxo-3-((6-(trifluoromethyl)quinazolin-4-yl)amino)pyrrolidin-1-yl)cyclohexyl)amino)-4-oxobutyl)-N-(2-((2S,3S)-1-methyl-5-oxo-2-(pyridin-3-yl)pyrrolidine-3-carboxamido)ethyl)-3-azaspiro[5.5]undecane-9-carboxamide, 3 Formic acid salt]	0.501 nM
CC(C)N(C)[C@@H]1CC[C@H](N2CC[C@H](Nc3ncnc4ccc(C(F)(F)F)cc34)C2=O)[C@H](NC(=O)C2CCN(CCCCCCCCNC(=O)[C@H]3CC(=O)N(C)[C@@H]3c3cccnc3)CC2)C1 [Example 144, N-((1R,2S,5R)-5-(Isopropyl(methyl)amino)-2-((S)-2-oxo-3-((6-(trifluoromethyl)quinazolin-4-yl)amino)pyrrolidin-1-yl)cyclohexyl)-1-(8-((2S,3S)-1-methyl-5-oxo-2-(pyridin-3-yl)pyrrolidine-3-carboxamido)octyl)piperidine-4-carboxamide, 3Formic acid salt]	3.16 nM
